The results in this text go back to US12024736B2, “Method for detecting l-serine based on Escherichia coli cysteine desulfurase” (priority 2021, dated 2024).

Holding throughout (assay type): biochemical
Assay [1] concerns the target T1, E. coli cysteine desulfurase (Escherichia coli, UniProt P0A6B7, P222S).
T1 construct: C-terminal histidine stretch (HHHHHH); made in house; host or cells: E. coli (IscA-/SufA- double-deficient strain is mentioned in the summary)
Description: Determination of the ability to resist other L-amino acids (colour after incubation with enzyme). The note with it: 4 mM amino acid, equal volume of enzyme, 37° C., 250 rpm, 2 h, naked eye.

In assay [2] the target is T1, E. coli cysteine desulfurase. Description: Quantitative detection of L-serine, absorbance at 528 nm (reaction time and linear range). The note with it: L-serine standard with reaction buffer, 25° C. The procedure: B. Reaction buffer: 40 mM Tris-HCl buffer (pH 9.0), 100 μM E. coli cysteine desulfurase, and 0.4 mM L-cysteine.
L-serine to be tested was mixed with the reaction buffer in equal volumes, and incubated at 25° ° C. for different times; the absorbance was measured at a wavelength of 528 nm; a curve was plotted with the time as the horizontal axis and the absorbance value at 528 nm as the longitudinal axis.
The L-serine standard solution was diluted to three concentrations, respectively: 0.50 mM, 1.00 mM, and 2.00 mM. Each serial dilution of the standard solution and the unknown sample (100 μL) were each mixed with 100 μL of reaction buffer, incubated at room temperature (25° C.) for 2 h, and the absorbance at 528 nm was measured for sample and standard tubes, respectively.
A standard curve was plotted with the concentration of the standard solution as the abscissa and the absorbance measured at a wavelength of 528 nm as the ordinate, and the curve was fitted to obtain a curve equation and an R^2 value.

The target is the same in assay [3]. The experiment in a line: Anti-interference of the detection method for D-serine, cycloserine and serine derivatives.

For the molecule `N[C@@H](CO)C(=O)O` [L-serine], the “colour after incubation with E. coli cysteine desulfurase” value in assay [1] was “red”. In addition, the “incubation time at which the absorption peak at 528 nm reaches the highest” value in assay [2] is on record as 2 h. As for `N[C@H](CO)C(=O)O` [D-serine], in assay [3], the “anti-interference ability of the detection method” value is reported as “good anti-interference ability”. With `N[C@@H]1CON=C1O` [cycloserine], the “anti-interference ability of the detection method” value in assay [3] is “good anti-interference ability”.
